Source: publication PMC7017153, “Assembly of a G-Quadruplex Repair Complex by the FANCJ DNA Helicase and the REV1 Polymerase” (Genes, 2019)
“Also recorded” adds a separate entry of the source. Where no end group is shown, it is not given here. The star is where a group is joined. Biotin = O=C1N[C@H]2[C@H](CS[C@H]2CCCCC(=O)*)N1

Tests used:
[1] = system: human REV1 CTD (amino acid residues 1157 to 1251); assay: BLI, biotinylated FANCJ PIP peptides with REV1 CTD; format: binding; details: Buffer H, 25 °C; for BLI binding signal (Δλ), REV1 CTD versus PCNA: 1.3 µM PCNA trimer
From the text: (§1) The pEB022 plasmid used to produce full-length human PCNA protein was kindly provided by Dr. M. Todd Washington (University of Iowa). A codon-optimized construct (VB170525-1265 nra) used to express human REV1 CTD (amino acid residues 1157 to 1251) in E. coli was synthesized by VectorBuilder Inc. (Chicago, IL, USA). Plasmids were transformed into NiCo21(DE3) competent cells from New England Biolabs (Ipswich, MA, USA). Single bacteria colonies were selected on LB agar plates that were supplemented with 50 µg/mL of kanamycin (PCNA) or carbenicillin (REV1 CTD) to inoculate starter cultures in LB broth. Overnight growths were diluted 1:50 into 4 × 1L LB (37 °C, 250 rpm). Protein expression was induced by adding IPTG to 1 mM when the optical density at 600 nm reached 0.4 absorbance units. Cells were cultured overnight at 16 °C. They were harvested 16 h post induction by centrifugation (6000 × g at 4 °C) for 60 min, and the pellets were resuspended in 20 mM NaPi (pH 7.5), 300 mM NaCl, 30 mM imidazole, 1 mM DTT, 5% (v/v) glycerol, 1% NP-40, and 1 mM PMSF.
(§2) BLI assays were performed on a BLItz instrument (Pall Fortébio, Fremont, CA, USA). Streptavidin-coated biosensors were purchased from Pall Fortébio (Lot 1906281). Biosensors were hydrated in Buffer H for 10 min, and the baseline optical interference was recorded. A total of 150 nM of biotinylated G4 DNA or FANCJ PIP peptide was loaded onto the sensors over 2 min, after which they were washed with Buffer H. Binding reactions were initiated by placing the biosensors in analyte solutions at the indicated concentrations. After their interactions had reached an equilibrium, the sensors were returned to buffer to monitor dissociation of the complexes. Experiments were repeated in triplicate. BLI binding isotherms were generated by plotting the plateau values of the association phase versus total analyte concentration. These curves were fit to a 1:1 interaction model, as described above. The parameters reported were obtained from the average and 95% confidence interval of the three data sets.
PIP-containing proteins bind directly to PCNA to coordinate DNA replication and repair. However, it is now evident that noncanonical PIP-boxes can serve as hotspots to recruit other proteins, including the REV1 translesion synthesis polymerase and the MLH1 mismatch repair protein [54, 55, 56, 64]. To test if the PIP-like motif in FANCJ functions as a PIP or an REV1-interacting region (RIR), we compared how this peptide bound to PCNA versus REV1 by BLI. Recombinant human PCNA protein and the C-terminal domain (CTD) of human REV1 were purified from E. coli (Figure S3A). Biotinylated FANCJ PIP was immobilized on a streptavidin-coated biosensor and experiments were performed as described above. […] Because Δλ is related to the thickness of the biolayer, this value reports the accumulation of mass on the sensor tip. […] This difference is further magnified as REV1 CTD has a molecular mass of ~12 kDa, while a human PCNA trimer is about seven times its size, at ~86 kDa. Next, we tested the effects of a FANCJ PIP AA peptide on its interactions with REV1 CTD and PCNA. The consecutive consensus aromatic residues (YF) within the potential PIP-motif were replaced with alanine amino acids (AA). […] BLI experiments with PIP and PIP AA were repeated as a function of REV1 CTD and PCNA concentration to measure their corresponding equilibrium constant values.

full-length human PCNA = assay: BLI, biotinylated FANCJ PIP peptides with PCNA; format: binding; details: Buffer H, 25 °C; for Binding to PCNA: BLI
From the text: as §1, §2
PIP-containing proteins bind directly to PCNA to coordinate DNA replication and repair. However, it is now evident that noncanonical PIP-boxes can serve as hotspots to recruit other proteins, including the REV1 translesion synthesis polymerase and the MLH1 mismatch repair protein [54, 55, 56, 64]. To test if the PIP-like motif in FANCJ functions as a PIP or an REV1-interacting region (RIR), we compared how this peptide bound to PCNA versus REV1 by BLI. Recombinant human PCNA protein and the C-terminal domain (CTD) of human REV1 were purified from E. coli (Figure S3A). Biotinylated FANCJ PIP was immobilized on a streptavidin-coated biosensor and experiments were performed as described above. […]

bioFANCJ PIP AA (human) = assay: BLI; 150 nM biotinylated FANCJ PIP or PIP AA peptide loaded on streptavidin biosensors (BLItz); REV1 CTD (1.8 uM) or PCNA trimer (1.3 uM) as analyte, also as a function of analyte concentration; Buffer H (20 mM HEPES pH 7.5, 150 mM KCl, 5 mM TCEP, 5% glycerol), 25 C; plateau values fit to a 1:1 model
[2] = Circular dichroism (CD) of G4 DNA in KCl; format: physicochemical; details: 20 mM boric acid pH 7.5, 150 mM KCl, 25 °C, 320-220 nm
Experimental: (§3) CD measurements were collected on a JASCO J-810 spectropolarimeter (JASCO Inc., Easton, MD, USA) equipped with a PTC-423S peltier system. G4 DNA samples were dialyzed into 20 mM Boric Acid pH 7.5, 150 mM KCl (or NaCl). CD spectra were collected from 320 nm to 220 nm at 25 °C. Five traces were obtained for each DNA substrate, and a reference scan of the buffer alone was subtracted from the averaged CD signal.

[3] = Circular dichroism (CD) of G4 DNA in NaCl; format: physicochemical; details: 150 mM NaCl, 25 °C, 320-220 nm
Experimental: as §3

[4] = target: T1, human REV1 CTD (amino acid residues 1157 to 1251) (human, UniProt Q9UBZ9 1157-1251); assay: BLI; 150 nM biotinylated FANCJ PIP or PIP AA peptide loaded on streptavidin biosensors (BLItz); REV1 CTD (1.8 uM) or PCNA trimer (1.3 uM) as analyte, also as a function of analyte concentration; Buffer H (20 mM HEPES pH 7.5, 150 mM KCl, 5 mM TCEP, 5% glycerol), 25 C; plateau values fit to a 1:1 model; details: both partners purified
T1 construct: REV1 translesion DNA synthesis polymerase, human, C-terminal domain, residues 1157-1251; codon-optimized construct; also called C-terminal domain (CTD) of human REV1; source: E. coli NiCo21(DE3), purified (Ni2+ IMAC, heparin)
T1 sequence (looked up): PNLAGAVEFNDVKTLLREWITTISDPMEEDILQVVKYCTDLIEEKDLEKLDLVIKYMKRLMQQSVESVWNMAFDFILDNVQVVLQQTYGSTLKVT

[5] = target: T2, full-length human PCNA protein (human, UniProt P12004 1-261); assay: as above; details: both partners purified
T2 construct: PCNA sliding clamp, human, full length; made from plasmid pEB022; also called PCNA trimer; source: E. coli NiCo21(DE3), purified (Ni2+ IMAC, heparin)

[6] = BLI isotherms, PIP AA versus wild-type PIP
[7] = biotinylated peptide 150 nM, 1.8 µM REV1 CTD

T2 sequence (P12004 whole entry): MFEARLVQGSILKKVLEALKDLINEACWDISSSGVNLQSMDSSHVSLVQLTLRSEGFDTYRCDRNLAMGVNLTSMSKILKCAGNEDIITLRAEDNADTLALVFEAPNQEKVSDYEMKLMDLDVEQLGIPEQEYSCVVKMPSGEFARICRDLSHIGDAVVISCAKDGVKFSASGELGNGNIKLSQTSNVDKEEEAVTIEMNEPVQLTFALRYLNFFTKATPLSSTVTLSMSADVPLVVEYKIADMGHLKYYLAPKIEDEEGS

## Biotin-SWSSFNSLGQAATGKIP [FANCJ PIP AA, Biotin-…, YF replaced with AA]
[1]; [6]
  Change in affinity for REV1 CTD by PIP AA mutation: small increase in affinity for REV1 CTD
[1]; [7]
  BLI binding signal (Δλ), REV1 CTD versus PCNA: more REV1 CTD bound to the mutant peptide versus PCNA
  BLI binding signal, PIP AA versus wild-type PIP, REV1 CTD: larger binding signals compared to the wild-type PIP sequence for REV1 CTD
full-length human PCNA; [6]
  Change in affinity (binding constant) for PCNA by PIP AA mutation: binding of PCNA was weakened twofold; also recorded: reduced the binding constant for PCNA by half
full-length human PCNA
  Binding to PCNA: still retained residual interactions with PCNA
full-length human PCNA; biotinylated peptide 150 nM, 1.3 µM PCNA trimer
  BLI binding signal, PIP AA versus wild-type PIP, PCNA: larger binding signals compared to the wild-type PIP sequence

## full-length human PCNA protein (from UniProt P12004 1-261)
bioFANCJ PIP AA (human)
  fold weakening of the equilibrium constant against wild-type FANCJ PIP: 2 fold

## Biotin-SWSSFNSLGQYFTGKIP [FANCJ PIP, Biotin-…, FANCJ amino acids 1001–1017]
[1]; BLI
  Binding to REV1 CTD: bound to REV1 CTD
[1]; [7]
  BLI binding signal (Δλ), REV1 CTD versus PCNA: REV1 CTD produced a larger binding signal than PCNA at similar molar concentrations of protein; also recorded: Interactions with REV1 CTD, however, produced a stronger binding signal than PCNA
full-length human PCNA
  Binding to PCNA: bound to REV1 CTD and to PCNA

## (TTAGGG)4: human telomeric G4 DNA, TTAGGGTTAGGGTTAGGGTTAGGG
[2]
  G4 conformation by CD (KCl): folded into a hybrid conformation
[3]
  G4 conformation by CD (NaCl): adopted an anti-parallel configuration in NaCl buffer

B1: bioFANCJ PIP (peptide)
peptide: Biotin-SWSSFNSLGQYFTGKIP
notes: FANCJ helicase, human, PIP-like motif, amino acids 1001-1017; Held on streptavidin biosensors by the N-terminal biotin; also called biotinylated FANCJ PIP; wild-type PIP; source: synthetic peptide (Genscript)
[4]
  binding result: binds
[5]
  binding result: binds
